Assay results reported in patent US20250381249A1, “COMBINATION TREATMENT FOR RESISTANT HYPERTENSION” (Mayo Foundation for Medical Education and Research, priority 2018, published 2025).

Assays:
Format in all cases: in vivo, rat
[1] = system: SHR; assay: Acute study in SHR, systemic hemodynamics (arterial BP); settings: all three doses of Fs (1, 5, 10 mg/kg IV bolus)
Method: (§1) Acute Study Protocol in SHR: The cardiorenal and neurohumoral actions of MANP, Fs, or their combination were investigated in the genetic model of hypertension in male SHR (n=6 in each group). Rats were anesthetized in an induction chamber with inhaled Isoflurane 2.5%. During this brief state of anesthesia, the rats were administered IP Inactin 100 mg/kg to maintain anesthesia. An oxygen mask was used until the end of the experiment. The carotid artery was cannulated for arterial pressure measurements and the right jugular vein was cannulated for infusions. Pressures were recorded and analyzed digitally (Sonometrics, London, Ontario, Canada). Via a small incision in the lower abdominal wall, the bladder was cannulated for urine sampling.
Immediately after preparation, a 30-minute equilibration period was started with intravenous inulin infusion. […] After baseline measurements, rats were randomly assigned to ten groups: • Group 1—treated with MANP100; • Group 2—treated with MANP300; • Group 3—treated with MANP600; • Group 4—treated with Fs1; • Group 5—treated with Fs5; • Group 6—treated with Fs10; • Group 7—treated with MANP300+Fs5; • Group 8—treated with MANP300+Fs10; • Group 9—treated with MANP600+Fs10; and • Group 10—treated with inulin, normal saline, or inulin and normal saline. […]
(§2) Statistical Analysis: Values are expressed as mean±standard error of mean (SEM). […]

[2] = system: SHR; assay: Acute study in SHR, neurohumoral analysis (plasma and urinary cGMP, aldosterone); settings: Fs5 and Fs10, 60 minutes
Method: Rats were anesthetized in an induction chamber with inhaled Isoflurane 2.5%. During this brief state of anesthesia, the rats were administered IP Inactin 100 mg/kg to maintain anesthesia. An oxygen mask was used until the end of the experiment. The carotid artery was cannulated for arterial pressure measurements and the right jugular vein was cannulated for infusions. Pressures were recorded and analyzed digitally (Sonometrics, London, Ontario, Canada). Via a small incision in the lower abdominal wall, the bladder was cannulated for urine sampling. Immediately after preparation, a 30-minute equilibration period was started with intravenous inulin infusion. […] Plasma and urinary cGMP (Enzo Life Sciences) and aldosterone (DRG International, Springfield, NJ) were determined by ELISA. Inulin concentrations were measured using the anthrone method, as described elsewhere (Fuhr et al. (1955) Klin. Wochenschr 33:729-730). GFR was calculated by inulin clearance. Electrolytes were measured by flame photometry (IL943, Instrumentation Laboratory, UK). All measurements were performed according to manufacturer instructions.

[3] = system: spontaneously hypertensive rats (SHR); assay: Individual and combined effects of MANP and Fs on BP and aldosterone in spontaneously hypertensive rats (Example 1); settings: for Mean arterial pressure (MAP) Δ: 60 minute period, mean±SD
[4] = system: SHR; assay: Acute study in SHR, renal function (GFR, urinary sodium and water excretion); settings: Fs groups, 60 minutes, inulin clearance
Method: as §1, with “Via a small incision in the lower abdominal wall, the bladder was cannulated for urine sampling.” left out
Neurohormonal and Electrolyte Analysis: Plasma ANP was measured by radioimmunoassay (Phoenix Pharmaceuticals) as an assessment of MANP, as the ANP RIA fully detects MANP (Burnett et al. (1986) Science 231(4742):1145-1147). Plasma and urinary cGMP (Enzo Life Sciences) and aldosterone (DRG International, Springfield, NJ) were determined by ELISA. Inulin concentrations were measured using the anthrone method, as described elsewhere (Fuhr et al. (1955) Klin. Wochenschr 33:729-730). GFR was calculated by inulin clearance. Electrolytes were measured by flame photometry (IL943, Instrumentation Laboratory, UK). […]
as §2

NS(=O)(=O)c1cc(C(=O)O)c(NCc2ccco2)cc1Cl [Fs, furosemide]
BP compared with controls [1]: significantly reduced
levels of aldosterone compared to the control, MANP100 and MANP300 groups [2]: significantly higher
Mean arterial pressure (MAP) Δ ([3]; Fs1: 1 mg/kg Fs single bolus): −40±9 mmHg
Mean arterial pressure (MAP) Δ ([3]; Fs5: 5 mg/kg Fs single bolus): −55±8 mmHg
Mean arterial pressure (MAP) Δ ([3]; Fs10: 10 mg/kg Fs single bolus): −63±11 mmHg
urinary flow ([3]; Fs, MANP and Fs+MANP groups, p<0.05): enhanced
GFR compared to the no treatment control groups [4]: significantly lower
